We go through one compound from patent US20260184726A1, “HETEROCYCLIC COMPOUNDS AS KINASE INHIBITORS, COMPOSITIONS, AND METHODS OF USE THEREOF” (JS INNOMED HOLDINGS LTD., priority 2022, published 2026).

The target of assay [1] is T1, BAF3-KIF5B-RET cells (Homo sapiens, UniProt P07949).
T1 construct: fused on or other part: P33176 (Kinesin-1 heavy chain)
The assay can be described thus: BAF3-KIF5B-RET Cell Proliferation Assay (CellTiter-Glo). In kind it is cell-based. The settings on record: growth inhibition, 72 hours; Table 2; read-out: BA/F3-KIF5B-RET Cellular activity. In a few lines:
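Ba/F3 cells driven by KIF5B-RET (wild-type, V804M or G810R) or TEL-RET-M918T, 2,000 per well in RPMI/10% FBS, attached 24 h. Treated 72 h at 37° C with compound from 0.00015 to 1 μM final, 0.1% DMSO. CellTiter-Glo luminescence relative to DMSO wells gave IC50.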

The target in assay [2] is T2, human KDR kinase (Homo sapiens, UniProt P35968).
T2 construct: purchased Carna 08-191
The assay can be described thus: KDR Kinase Assay (mobility shift assay, ATP at Km). It is filed as biochemical. To be noted: 92 μM ATP (Km), read-out: KDR Enzymatic Activity. How it is done: Compounds were tested by Mobility shift assay with ATP concentration at Km. The assay used human KDR kinase (Carna 08-191). Test compounds were prepared and diluted in DMSO in 3-fold serial dilutions to 50× of the final testing concentrations. The compounds were then further diluted to 5× by the kinase reaction buffer (50 mM HEPES pH 7.5, 0.0015% Brij-35). The enzymatic reaction for compound testing was performed in a white 384-well polypropylene plate (Corning 3573) with a total reaction volume of 25 μl containing 1.2 nM KDR, 3 μM peptide substrate FAM-P22 (GL Biochem 112393), and 92 μM ATP (Sigma A7699-1G). The assay started with loading RET diluted in kinase reaction buffer to wells, followed by addition of equal volume of 5× compounds for 15-min incubation at the room temperature for pre-treatment. The enzymatic reaction was initiated by addition of mixture of the substrate and ATP prepared in kinase reaction buffer. After incubation at 28° C. for one hour, 25 μl of stopper buffer (a mixture of 100 mM HEPES pH 7.5 buffer, 0.015% Brij-35, 50 mM EDTA and 0.2% of coating reagent 3 (Cliper Lifesciences)). After 30 minutes of incubation at room temperature, the plate was read in a Caliper. Percent of control was calculated as the percentage of compound-treated vs 2% DMSO vehicle-treated. The dose-response curves were generated and the IC50s were calculated by nonlinear sigmoid curve fitting using XLFit.

Assay [3] has as its target T3, human Aurora B kinase (Homo sapiens, UniProt Q96GD4).
T3 construct: purchased Carna 05-102
As to the kind of experiment: Aurora B Kinase Assay (mobility shift assay, ATP at Km). In kind it is biochemical. The settings on record: 15 μM ATP (Km), read-out: AurB Enzymatic Activity.

T3 sequence (Q96GD4 whole entry): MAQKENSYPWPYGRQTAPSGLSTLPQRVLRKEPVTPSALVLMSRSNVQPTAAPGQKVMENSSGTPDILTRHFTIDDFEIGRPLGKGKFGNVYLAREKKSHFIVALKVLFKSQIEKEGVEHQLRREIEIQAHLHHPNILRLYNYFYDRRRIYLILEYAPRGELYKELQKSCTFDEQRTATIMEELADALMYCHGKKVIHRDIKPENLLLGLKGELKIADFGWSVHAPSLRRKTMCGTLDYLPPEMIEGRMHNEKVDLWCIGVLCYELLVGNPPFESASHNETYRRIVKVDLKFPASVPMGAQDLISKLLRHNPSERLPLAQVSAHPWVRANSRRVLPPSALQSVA
T3 sequence (Q9NQS7 803-918 partner limits assumed): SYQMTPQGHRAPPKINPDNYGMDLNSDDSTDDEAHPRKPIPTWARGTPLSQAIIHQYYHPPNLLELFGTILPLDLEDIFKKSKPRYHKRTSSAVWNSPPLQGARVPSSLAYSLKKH
T1 sequence (P07949 whole entry, change not shown, the tested form may be a part): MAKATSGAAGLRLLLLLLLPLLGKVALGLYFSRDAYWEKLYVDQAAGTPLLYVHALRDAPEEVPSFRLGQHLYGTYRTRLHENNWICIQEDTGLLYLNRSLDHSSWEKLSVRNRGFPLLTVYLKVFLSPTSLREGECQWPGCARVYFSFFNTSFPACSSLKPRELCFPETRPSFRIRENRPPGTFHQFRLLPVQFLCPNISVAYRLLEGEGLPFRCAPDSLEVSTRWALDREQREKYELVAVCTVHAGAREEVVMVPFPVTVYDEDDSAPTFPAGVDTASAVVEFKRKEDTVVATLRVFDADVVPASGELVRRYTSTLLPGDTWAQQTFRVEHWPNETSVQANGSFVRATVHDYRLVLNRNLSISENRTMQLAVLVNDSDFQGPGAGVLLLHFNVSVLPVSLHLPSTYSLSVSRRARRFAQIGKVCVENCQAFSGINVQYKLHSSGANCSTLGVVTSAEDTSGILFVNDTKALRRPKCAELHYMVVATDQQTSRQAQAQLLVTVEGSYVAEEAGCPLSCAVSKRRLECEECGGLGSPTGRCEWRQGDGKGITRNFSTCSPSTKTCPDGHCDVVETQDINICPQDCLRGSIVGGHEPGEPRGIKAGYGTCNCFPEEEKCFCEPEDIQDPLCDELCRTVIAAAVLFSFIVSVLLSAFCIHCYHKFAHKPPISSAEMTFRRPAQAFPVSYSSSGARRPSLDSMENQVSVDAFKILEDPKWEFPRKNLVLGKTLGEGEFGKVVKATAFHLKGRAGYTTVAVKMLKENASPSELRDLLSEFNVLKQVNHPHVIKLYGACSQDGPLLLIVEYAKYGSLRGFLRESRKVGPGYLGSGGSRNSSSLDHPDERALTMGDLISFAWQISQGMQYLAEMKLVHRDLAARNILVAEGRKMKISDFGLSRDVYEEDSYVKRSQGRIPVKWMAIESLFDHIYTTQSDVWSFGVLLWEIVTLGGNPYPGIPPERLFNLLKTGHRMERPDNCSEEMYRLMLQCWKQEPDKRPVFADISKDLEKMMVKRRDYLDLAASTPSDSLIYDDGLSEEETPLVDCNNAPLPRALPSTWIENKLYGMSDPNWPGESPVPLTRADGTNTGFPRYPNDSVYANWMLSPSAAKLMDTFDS
T2 sequence (P35968 20-1356): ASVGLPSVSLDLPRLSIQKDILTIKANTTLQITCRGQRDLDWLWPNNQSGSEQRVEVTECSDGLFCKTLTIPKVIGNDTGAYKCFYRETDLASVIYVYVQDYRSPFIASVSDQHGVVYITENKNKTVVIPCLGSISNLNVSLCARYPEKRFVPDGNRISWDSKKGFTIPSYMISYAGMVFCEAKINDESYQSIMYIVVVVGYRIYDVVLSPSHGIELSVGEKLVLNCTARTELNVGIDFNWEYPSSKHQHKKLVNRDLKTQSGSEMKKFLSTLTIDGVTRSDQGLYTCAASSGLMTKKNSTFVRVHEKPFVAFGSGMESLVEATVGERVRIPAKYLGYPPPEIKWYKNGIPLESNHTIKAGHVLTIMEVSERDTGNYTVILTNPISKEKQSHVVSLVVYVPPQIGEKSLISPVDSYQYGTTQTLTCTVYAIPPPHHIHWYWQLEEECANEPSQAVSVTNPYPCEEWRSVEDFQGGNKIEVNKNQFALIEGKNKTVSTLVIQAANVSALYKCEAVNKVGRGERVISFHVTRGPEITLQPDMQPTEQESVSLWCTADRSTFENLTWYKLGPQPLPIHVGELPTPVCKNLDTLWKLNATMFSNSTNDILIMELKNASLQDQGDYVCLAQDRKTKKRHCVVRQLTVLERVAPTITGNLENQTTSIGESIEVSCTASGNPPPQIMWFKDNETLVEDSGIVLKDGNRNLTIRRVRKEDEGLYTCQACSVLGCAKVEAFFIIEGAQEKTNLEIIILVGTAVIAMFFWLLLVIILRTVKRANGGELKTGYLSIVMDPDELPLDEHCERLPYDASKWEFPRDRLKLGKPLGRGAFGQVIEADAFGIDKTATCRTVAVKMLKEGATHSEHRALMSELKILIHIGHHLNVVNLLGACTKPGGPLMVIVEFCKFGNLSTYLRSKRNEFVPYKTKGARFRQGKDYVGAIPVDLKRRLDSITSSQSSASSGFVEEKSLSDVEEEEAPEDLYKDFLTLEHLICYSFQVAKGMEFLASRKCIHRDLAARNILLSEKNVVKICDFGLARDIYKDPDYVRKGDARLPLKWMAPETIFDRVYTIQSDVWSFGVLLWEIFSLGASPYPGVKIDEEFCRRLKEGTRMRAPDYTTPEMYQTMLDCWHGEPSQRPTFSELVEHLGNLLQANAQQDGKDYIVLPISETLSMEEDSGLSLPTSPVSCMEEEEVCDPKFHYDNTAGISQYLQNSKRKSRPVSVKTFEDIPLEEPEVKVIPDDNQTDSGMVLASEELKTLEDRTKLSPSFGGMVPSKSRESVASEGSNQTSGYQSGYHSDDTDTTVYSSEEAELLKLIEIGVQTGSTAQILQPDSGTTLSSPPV

Turning to `COc1ccc(CN2C3CC2CN(c2ccc(-c4cc(-c5ccc(C(C)(C)NC(C)=O)cn5)cn5ncc(C#N)c45)cn2)C3)cn1` [Example 12, N-(2-(6-(3-cyano-4-(6-(6-((6-methoxypyridin-3-yl)methyl)-3,6-diazabicyclo[3.1.1]heptan-3-yl)pyridin-3-yl)pyrazolo[1,5-a]pyridin-6-yl)pyridin-3-yl)propan-2-yl)acetamide], the GI50 in assay [1] was determined as 1 nM. Besides, the IC50 in assay [2] was found to be 2 nM; in assay [3], 25.2 nM.
